Measured values from US6986881B1, “Identification of compounds that modify transcriptional responses to hypoxia” (Dana-Farber Cancer Institute, Inc., priority 1999, dated 2006).
No end group written: not given here.

Assays:
[1] = test system: Hep3B cells, Epo-luciferase reporter; assay: Epo-luciferase hypoxia-inducible reporter assay; type: cell-based; conditions: overproduction of polypeptide; 1% oxygen 18 hours
Protocol: FIG. 2A is a graph showing the results of luciferase and β-galactosidase assays, in which Hep3B cells were cotransfected with an Epo-luciferase reporter (100 ng), pCMV-LacZ (100 ng), and the indicated expression plasmids (300 ng). Cells were subsequently exposed to either ambient (Normoxia, stippled bars) or 1% (Hypoxia, solid bars) oxygen for 18 hours prior to assay. The results are expressed as corrected relative light units (RLU, mean of three independent transfections ±S.D.).
(§1) Reporter assays. Luciferase and β-galactosidase assays were performed as previously described (Bhattacharya et al., Genes Dev. 13:64–75, 1999). In all cases, luciferase activity was corrected for β-galactosidase activity as an internal control for transfection efficiency and global changes in transcriptional activity. Results are expressed as corrected relative light units (RLU). For each reporter experiment, at least two independent experiments were performed.
(§2) Hypoxia. Hypoxia was achieved by incubating cells in a humidified environment at 37° C. in a Cellstar three gas incubator (Harris) maintained at 10% CO2 and 1% O2. Accurate O2 and CO2 regulation was periodically verified with a Fryrite gas analyzer (Bacharach).

[2] = test system: HCT116 cells; assay: Nude mouse xenograft tumor model, HCT116; type: in vivo, nude mice; conditions: for histological examination of the injection site / tumor: HCT116, 3 weeks of growth
Description: FIG. 3A is a graph showing the in vivo effect of TADC expression. HCT116 cells were infected at an MOI of 5 with retroviruses encoding Gal4 alone (circle), Gal4 fused with mutant TAD-C polypeptide (Gal4-MUT, square) or with wild type TAD-C polypeptide (triangle). A total of 4×10^6 cells were implanted subcutaneously into nude mice. The results are expressed as the mean ±S.D. of 8–10 independent tumors.
FIGS. 4A and 4B are a series of photographs showing that the in vivo effect of TAD-C expression can be rescued by a CH1-independent HIF-1α allele. Tumors arising from HCT116 cells infected with retrovirus encoding Gal4 fused with mutant (MUT) or wild type TAD-C polypeptide at an MOI of 5 were excised after 3 weeks of growth. Paraffin sections were stained with H&E or immunostained for Gal4 or CD31/PECAM. The subcutaneous tissue (SQ), tumor (Tum), and necrotic areas (Nec) are indicated.
FIG. 4C is a graph showing the results of experiments in which HCT116 cells were infected with either pBABE-puro-VP16 (VP16) or pBABE-puro-HIF-VP16 (HIFVP), and selected with puromycin. These cells were then infected with retrovirus encoding either Gal4-MUT or Gal4-TADC at an MOI of 5. A total of 6×10^6 cells were implanted in nude mice. Results are the mean of 8 independent tumors ±S.D.
(§3) Cell culture and retroviral infection. Tumor cell lines were obtained from the ATCC, and were cultured in DMEM supplemented with 10% FBS, penicillin, streptomycin, and L-glutamine (Gibco-BRL). Cells in logarithmic growth phase were serially infected 12 hours apart with VSV-G pseudotyped pMMP-Gal4 retroviruses to achieve a final MOI of 5 or 10, depending on the experiment. […] For pBABE-puro-VP16 or pBABE-puro-HIF-VP16, cells were infected at an MOI of <1 and selected with puromycin (2 μg/ml) for 4 days. Cells were allowed to recover for 1 day and then infected at an MOI of 5 with pMMP-Gal4 retroviruses.
Xenograft tumor model. Nude mice (Taconic) were obtained at 6–8 weeks of age and allowed to acclimate for 1 week prior to tumor implantation. Tumor cells were allowed to recover for at least 48 hours after retroviral infection prior to implantation into nude mice. The indicated number of tumor cells was injected subcutaneously and bilaterally into the flanks of mice. Tumors were measured with calipers, and tumor volume was calculated as 0.5×L×W^2. For each cell line, at least two independent experiments were performed. Where indicated, tumors were excised and fixed in 4% paraformaldehyde in phosphate buffered saline or minced and lysed in RIPA/300 buffer (50 mM Tris-HCl (pH 8.0), 300 mM NaCl, 1% NP40, 0.5% DOC, 0.1% SDS, 1 mM DTT, protease inhibitors). Immunostaining with anti-Gal4 (IKE, Santa Cruz Biotechnology) or anti-CD31 (MEC13.3, Pharmingen) was performed using the Vectastain ABC Elite system (Vector) according to the manufacturer's instructions.

[3] = test system: STAT2; assay: Gal4-luciferase reporter, p300/CBP dependent transactivation (Gal4-STAT2); type: cell-based; conditions: TAD-C polypeptide overexpression, Hep3B cells
Protocol: (§4) FIG. 2B is a graph showing the effect of TAD-C expression on p300/CBP dependent transactivation. Hep3B cells were cotransfected with the indicated thioredoxin-constrained fusion protein expression plasmids (300 ng), the indicated Gal4-fusion proteins (20 ng), Gal4-luciferase reporter (100 ng), and pCMV-LacZ (50 ng). Where indicated, cells were exposed to hypoxia for 18 hours. The results are expressed as corrected RLU (mean of three independent transfections ±S.D.).
as §1

[4] = test system: HepG2 cells; assay: Cell death by flow cytometry (Annexin V staining and vital dye exclusion); type: cell-based; conditions: for cell survival: versus Gal4 alone
Protocol: FIG. 2D is a graph showing the levels of cell death in an experiment in which HepG2 cells were infected at an MOI of 5 with retrovirus encoding the indicated Gal4 fusion proteins. Cells were exposed to either ambient or 1% oxygen for 36 hours, and then assayed for cell death by flow cytometric analysis using Annexin V staining and vital dye exclusion. The results are expressed as the mean of three independent experiments ±S.E.M. The asterisk denotes statistical significance (p=0.05) in comparison to controls.
as §2, §3
(§5) Immunoblot, ribonzuclease protection, and cell death assays. Immunoblot analyses for Gal4 (RK5C1, Santa Cruz Biotechnology), p53 (DO-1, Oncogene Research), and HIF-1α (OZ15 (Arany et al., Proc. Natl. Acad. Sci. U.S.A. 93:12969–12973, 1996)) were performed using standard techniques (Ausubel et al., Eds., Current Protocols in Molecular Biology (Wiley-Interscience, New York, 1988)). Total RNA was isolated (RNeasy, Qiagen), and ribonuclease protection assays performed utilizing a multiprobe human angiogenesis kit (RiboQuant, Pharmingen) according to the manufacturer's instructions. Cell death was measured by staining with anti-Annexin V antibody (Pharmingen) and 7-amino-actinomycin D (Pharmingen), and analyzed by flow cytometry according to the manufacturer's instructions.

[5] = target: T1, GST-CH1 (amino acids 302–443 of p300) (Homo sapiens, UniProt Q09472); assay: In vitro protein binding assay of IVT Gal4-fused HIF-1α fragments to GST-CH1; conditions: Gal4 fusion, translated in vitro
T1 construct: made in house; host or cells: bacteria
Description: One fifth of the total IVT product used for each binding assay is indicated (Input), along with the amount bound by GST-CH1 (Bound).
The detailed structural requirements for p300/CBP binding to HIF-1α were mapped by in vitro assays utilizing a series of GST-fused deletion mutants centered around the CH1 domain of p300, the primary HIF-1α interacting unit of that protein (Arany et al., Proc. Natl. Acad. Sci. U.S.A. 93:12969–12973, 1996; Kallio et al., EMBO J. 17:6573–6586, 1998). These mutant fusion proteins were assayed for binding to full length, iii vitro translated HIF-1α a zinc-dependent process (FIG. 1B). […] To map the minimal p300-binding domain of HIF-1α, a series of Gal4-fused truncation mutants of the C-terminus were generated. These Gal4 fusion proteins were translated in vitro and probed for their ability to bind to GST-CH1 (amino acids 302–443).
In vitro translation and in vitro protein binding assays. Except where noted, all reagents were from Sigma. In vitro transcription/translation (IVT) was performed in the presence of ^35S-methionine (NEN) using T3 or T7 polymerase coupled with rabbit reticulocyte lysates (TNT, Promega) according to the manufacturer's instructions. GST fusion proteins were produced in, and purified from, bacteria, and binding of IVT proteins was performed as previously described (Grossman et al., Mol. Cell. 2:405–415, 1998). […]

[6] = test system: SRC-1; assay: Gal4-luciferase reporter, p300/CBP dependent transactivation (Gal4-SRC1); type: cell-based; conditions: TAD-C polypeptide overexpression, Hep3B cells
Protocol: as §4, §1

[7] = test system: RAR; assay: Gal4-luciferase reporter, p300/CBP dependent transactivation (Gal4-RAR); type: cell-based; conditions: TAD-C polypeptide overexpression, Hep3B cells
Protocol: as §4, §1

[8] = test system: HIF-1α; assay: Immunoblot for HIF-1α abundance; type: cell-based; conditions: hypoxic conditions
Protocol: as §5

[9] = test system: VEGF mRNA in HepG2 cells; assay: Ribonuclease protection assay for VEGF mRNA; type: cell-based; conditions: HepG2, retrovirus MOI 10, both normoxic and hypoxic conditions
Protocol: In this assay, HepG2 cells were infected at an MOI of 10 with retroviruses encoding Gal4 alone or Gal4 fused with wild type or mutant (MUT) TAD-C polypeptide. Cells were exposed to either ambient or 1% (Hypoxia) oxygen for 18 hours prior to preparation of total RNA.
To facilitate expression of the relevant TAD-C and mutant polypeptides, VSV-G pseudotyped retroviruses were engineered to express Gal14 carrier protein alone or Gal4 fused to either wild type or mutant TAD-C polypeptide. HepG2 cells were infected with these retroviruses at a multiplicity of infection (MOI) of 10, exposed to either normal or hypoxic conditions, and VEGF mRNA levels were determined by a ribonuclease protection assay. Equivalent expression of Gal4 and the Gal4 fused polypeptides was regularly achieved in this and related experiments (for example, see FIG. 3A, inset). […] The overall abundance of HIF-1α under hypoxic conditions was not altered by introduction of TAD-C.
Hypoxia. Hypoxia was achieved by incubating cells in a humidified environment at 37° C. in a Cellstar three gas incubator (Harris) maintained at 10% CO2 and 1% O2. […]
Immunoblot, ribonzuclease protection, and cell death assays. […] Cell death was measured by staining with anti-Annexin V antibody (Pharmingen) and 7-amino-actinomycin D (Pharmingen), and analyzed by flow cytometry according to the manufacturer's instructions.

[10] = test system: SREBP2; assay: Gal4-luciferase reporter, p300/CBP dependent transactivation (Gal4-SREBP2); type: cell-based; conditions: TAD-C polypeptide overexpression, Hep3B cells
Protocol: as §4, §1

[11] = test system: MDA-MB435S cells; assay: Nude mouse xenograft tumor model, MDA-MB435S; type: in vivo, nude mice; conditions: MDA-MB435S cells expressing the polypeptide, versus Gal4 alone or Gal4-mutant
Protocol: FIG. 3B is a graph showing results of the experiments described in reference to FIG. 3A for MDA-MB435S cells.
as §3
Xenograft tumor model. Nude mice (Taconic) were obtained at 6–8 weeks of age and allowed to acclimate for 1 week prior to tumor implantation. Tumor cells were allowed to recover for at least 48 hours after retroviral infection prior to implantation into nude mice. The indicated number of tumor cells was injected subcutaneously and bilaterally into the flanks of mice. Tumors were measured with calipers, and tumor volume was calculated as 0.5×L×W^2. For each cell line, at least two independent experiments were performed. […]

[12] = target: HIF-1α/p300 CH1 interaction (Homo sapiens, UniProt Q09472); conditions: cited from earlier work
Sequence of HIF-1α/p300 CH1 interaction (Q09472 whole entry): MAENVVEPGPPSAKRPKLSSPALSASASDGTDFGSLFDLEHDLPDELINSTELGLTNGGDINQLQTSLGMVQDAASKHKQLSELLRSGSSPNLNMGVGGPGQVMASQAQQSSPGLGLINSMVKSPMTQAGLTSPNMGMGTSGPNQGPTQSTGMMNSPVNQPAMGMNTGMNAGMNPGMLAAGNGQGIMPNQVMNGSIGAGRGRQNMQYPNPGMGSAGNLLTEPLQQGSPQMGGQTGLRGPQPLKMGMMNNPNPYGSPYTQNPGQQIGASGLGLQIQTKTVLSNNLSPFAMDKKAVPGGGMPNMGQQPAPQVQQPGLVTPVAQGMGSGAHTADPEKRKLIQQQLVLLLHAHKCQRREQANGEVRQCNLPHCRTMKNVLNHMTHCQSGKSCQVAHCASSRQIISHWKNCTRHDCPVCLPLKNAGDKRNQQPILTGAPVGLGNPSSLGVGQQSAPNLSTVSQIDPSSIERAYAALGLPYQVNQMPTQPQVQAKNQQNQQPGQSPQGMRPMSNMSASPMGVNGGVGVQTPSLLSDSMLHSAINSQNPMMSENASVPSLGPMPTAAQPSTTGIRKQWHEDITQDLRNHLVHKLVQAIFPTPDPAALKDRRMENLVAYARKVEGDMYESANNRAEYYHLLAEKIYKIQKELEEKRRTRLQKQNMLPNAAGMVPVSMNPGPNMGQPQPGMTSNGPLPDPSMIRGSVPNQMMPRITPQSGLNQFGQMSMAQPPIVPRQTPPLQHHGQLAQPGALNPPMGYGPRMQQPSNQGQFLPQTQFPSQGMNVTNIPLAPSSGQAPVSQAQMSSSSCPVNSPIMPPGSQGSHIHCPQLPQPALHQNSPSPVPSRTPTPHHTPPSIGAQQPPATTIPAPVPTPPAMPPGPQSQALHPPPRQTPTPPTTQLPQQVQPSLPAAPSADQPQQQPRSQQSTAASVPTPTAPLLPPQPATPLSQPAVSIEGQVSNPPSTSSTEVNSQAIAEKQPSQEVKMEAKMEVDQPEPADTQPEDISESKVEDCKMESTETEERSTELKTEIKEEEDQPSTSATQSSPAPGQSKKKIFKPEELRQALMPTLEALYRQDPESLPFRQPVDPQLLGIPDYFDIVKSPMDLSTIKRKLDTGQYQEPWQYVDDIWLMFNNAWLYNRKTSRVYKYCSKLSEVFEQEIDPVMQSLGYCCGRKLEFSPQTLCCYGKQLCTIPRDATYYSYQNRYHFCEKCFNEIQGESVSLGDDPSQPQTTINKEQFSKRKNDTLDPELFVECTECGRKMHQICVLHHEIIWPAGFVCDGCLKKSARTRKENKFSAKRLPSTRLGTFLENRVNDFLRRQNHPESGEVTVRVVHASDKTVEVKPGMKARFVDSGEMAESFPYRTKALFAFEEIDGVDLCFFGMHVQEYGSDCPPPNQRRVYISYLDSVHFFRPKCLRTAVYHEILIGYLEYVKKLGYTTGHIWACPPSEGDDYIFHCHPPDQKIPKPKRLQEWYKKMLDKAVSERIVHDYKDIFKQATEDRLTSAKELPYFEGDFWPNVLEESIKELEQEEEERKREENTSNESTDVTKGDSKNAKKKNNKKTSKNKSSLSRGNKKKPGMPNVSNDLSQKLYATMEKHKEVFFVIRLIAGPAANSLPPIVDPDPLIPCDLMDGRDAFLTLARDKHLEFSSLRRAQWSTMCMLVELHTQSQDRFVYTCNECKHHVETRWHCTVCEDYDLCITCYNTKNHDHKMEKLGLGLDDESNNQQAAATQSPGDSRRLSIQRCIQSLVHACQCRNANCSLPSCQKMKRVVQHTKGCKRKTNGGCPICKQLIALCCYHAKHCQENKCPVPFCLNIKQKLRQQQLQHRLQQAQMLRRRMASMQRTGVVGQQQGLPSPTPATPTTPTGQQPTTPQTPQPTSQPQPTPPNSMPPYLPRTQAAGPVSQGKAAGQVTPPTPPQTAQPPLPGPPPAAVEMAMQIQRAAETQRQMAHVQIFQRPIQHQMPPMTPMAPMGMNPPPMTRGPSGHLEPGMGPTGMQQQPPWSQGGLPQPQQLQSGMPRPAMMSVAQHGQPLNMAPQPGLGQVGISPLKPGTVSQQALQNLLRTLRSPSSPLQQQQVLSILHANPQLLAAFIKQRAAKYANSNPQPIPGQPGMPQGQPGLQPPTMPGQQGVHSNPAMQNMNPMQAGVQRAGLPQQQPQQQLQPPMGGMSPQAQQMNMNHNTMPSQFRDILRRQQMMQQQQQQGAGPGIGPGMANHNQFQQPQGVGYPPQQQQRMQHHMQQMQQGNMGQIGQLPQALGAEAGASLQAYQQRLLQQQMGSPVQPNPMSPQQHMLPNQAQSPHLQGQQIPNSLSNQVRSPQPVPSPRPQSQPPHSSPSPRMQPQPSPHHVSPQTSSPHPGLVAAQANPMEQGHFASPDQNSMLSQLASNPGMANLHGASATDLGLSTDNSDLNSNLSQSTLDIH

T1 sequence (Q09472 302-443): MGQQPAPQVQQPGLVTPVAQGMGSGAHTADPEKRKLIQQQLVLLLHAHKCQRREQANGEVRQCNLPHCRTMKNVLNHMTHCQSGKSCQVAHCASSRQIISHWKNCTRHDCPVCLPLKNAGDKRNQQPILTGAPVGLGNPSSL

Molecule: CH1: polypeptide corresponding to the minimal HIF-1α binding domain of p300 (CH1 domain, amino acids 302–418)
- hypoxia-inducible reporter activity [1]: attenuation

Molecule: TAD-C polypeptide: wild type TAD-C polypeptide (amino acids 786–826 of HIF-1α), expressed fused to Gal4 or thioredoxin-constrained
- histological examination of the injection site / tumor [2]: large areas of central necrosis with a small rim of viable tumor cells
- tumor growth ([2]; HCT116, coexpression of HIF-VP16, TAD-C versus mutant polypeptide): identical tumor growth
- tumor growth ([2]; HCT116, coexpression of unfused VP16, versus mutant polypeptide): attenuated
- tumor growth ([2]; HCT116 cells expressing the polypeptide, versus Gal4 alone or Gal4-mutant): significantly and reproducibly attenuated
- transcriptional activity of STAT2 [3]: inhibit
- cell death ([4]; HepG2, hypoxic conditions (1% oxygen, 36 hours), versus Gal4 alone or mutant): slightly, but significantly, increased
- cell growth ([4]; HepG2, normoxic conditions): not affected
- cell survival ([4]; HepG2, normoxic conditions): essentially the same
- binding to GST-CH1 [5]: necessary and sufficient for binding
- effect on SRC-1 transcriptional activity [6]: no effect
- effect on RAR transcriptional activity [7]: no effect
- overall abundance of HIF-1α [8]: not altered
- VEGF mRNA abundance [9]: reproducibly diminished
- effect on SREBP2 transcriptional activity [10]: no effect
- hypoxia-inducible reporter activity [1]: attenuation
- tumor growth [11]: significantly and reproducibly attenuated

Molecule: mutant TAD-C polypeptide: eight residue truncated mutant of TAD-C (amino acids 786–818 of HIF-1α), unable to bind GST-CH1 (SMDESGLPQLTSYDCEVNAPIQGSRNLLQGEEL; also: fused to Gal4; UniProt Q16665 786-818, looked up, fragment)
- histological examination of the injection site / tumor [2]: small areas of necrosis, but vast areas of viable tumor
- cell survival ([4]; HepG2, normoxic conditions): essentially the same
- binding to GST-CH1 [5]: unable to bind
- hypoxia-inducible reporter activity [1]: failed to exert a dominant-negative effect

B1: p35srj: protein with negative regulatory function on the HIF-1 pathway; binds p300/CBP, blocks HIF-1α/p300 CH1 interaction (protein, UniProt Q99967 1-270, looked up)
Cbp/p300-interacting …: MADHMMAMNHGRFPDGTNGLHHHPAHRMGMGQFPSPHHHQQQQPQHAFNALMGEHIHYGAGNMNATSGIRHAMGPGTVNGGHPPSALAPAARFNNSQFMGPPVASQGGSLPASMQLQKLNNQYFNHHPYPHNHYMPDLHPAAGHQMNGTNQHFRDCNPKHSGGSSTPGGSGGSSTPGGSGSSSGGGAGSSNSGGGSGSGNMPASVAHVPAAMLPPNVIDTDFIDEEVLMSLVIEMGLDRIKELPELWLGQNEFDFMTDFVCKQQPSRVSC
- HIF-1 transactivation [12]: inhibits
